{"source": "patent US20210369698A1", "about": "(Attillaps Holdings, priority 2019, published 2021)", "tested_on": "Demodex mites", "conditions": "10% chloroquine in water; in vitro; water control 44.8 hours", "method": "In vitro efficacy and mite lifetimes: Relative efficacy of various formulations are evaluated with a demodex survival time experiments. FIG. 3 tabulates demodex survival time, expressed in terms of LT50 (time at which 50% of demodex mites are killed) and/or average minutes to death for various active agents."}
{"smiles": "CCN(CC)CCCC(C)Nc1ccnc2cc(Cl)ccc12", "note": "(stereo not shown) [chloroquine, Chloroquine]", "values": [{"measurement": "LT50 (time at which 50% of demodex mites are killed)", "result": 31.6, "unit": "h"}]}
